{"source": "patent US20260041653A1", "about": "“AN HDAC INHIBITOR FOR TREATING CANCER WITH A MODIFIED STK11 ACTIVITY OR EXPRESSION” (Tango Therapeutics, Inc., priority 2022, published 2026)", "key": {"[1]": {"tested_on": "cytokines and antigen presentation genes", "experiment": "Nanostring PanCancer IO 360 cytokine and HLA gene profiling of STK11-/- MC38", "design": "species or system mouse", "conditions": "30 mg/kg for 7 days in vivo; 0.2 uM for 4 days in vitro", "experimental": "The cytokine expression of tumors from mice treated with Compound I was determined by Nanostring PanCancer IO 360 analysis.\nBriefly, STK11−/− MC38 tumors from mice treated for 7 days with 30 mg/kg of Compound I or anti-PD1 antibody alone or in combination were collected 8 hours post last dose. The gene expression profiles of CXCL9, CXCL10, and CXCL11 of the tumors were determined by Nanostring PanCancer IO 360 (FIG. 9A). Additionally, the gene expression profiles of Treg-recruiting chemokines CCL1 and CCL22 of the tumors were determined by Nanostring PanCancer IO 360 (FIG. 9B).\nSTK11-deficient MC38 cells were also profiled for HLA gene expression by Nanostring IO360 panel in vitro after 4 days of treatment with Compound I at 0.2 uM compared to DMSO solvent control (FIG. 9C)."}, "CYP2C19": {"target": "CYP2C19 (Homo sapiens, UniProt P33261)", "sequence (P33261 whole entry)": "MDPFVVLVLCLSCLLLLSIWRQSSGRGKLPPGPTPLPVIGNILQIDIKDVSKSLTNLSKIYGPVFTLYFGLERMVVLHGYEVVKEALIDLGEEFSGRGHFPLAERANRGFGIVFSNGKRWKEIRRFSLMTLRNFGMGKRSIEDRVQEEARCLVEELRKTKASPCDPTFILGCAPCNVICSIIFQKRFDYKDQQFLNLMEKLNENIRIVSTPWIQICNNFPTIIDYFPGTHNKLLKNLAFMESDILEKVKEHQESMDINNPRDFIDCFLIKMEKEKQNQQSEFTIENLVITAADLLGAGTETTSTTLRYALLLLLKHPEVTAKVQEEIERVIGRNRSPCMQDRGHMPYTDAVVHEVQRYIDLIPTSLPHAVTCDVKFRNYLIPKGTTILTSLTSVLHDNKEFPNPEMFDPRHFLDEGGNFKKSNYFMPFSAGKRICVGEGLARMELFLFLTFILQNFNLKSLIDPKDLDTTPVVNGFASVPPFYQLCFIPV", "experiment": "Metabolism by recombinant human CYP2C19", "type": "in vitro ADME", "conditions": "read-out: terminal half life (T1/2), rh CYP2C19", "experimental": "(§1) Drug metabolizing enzymes involved in the biotransformation of Compound I were investigated using human liver microsomes (HLM) and recombinant enzymes. Compound I was stable in HLMs (>93% remaining after 240 minutes of incubation with HLM protein concentration at 0.6 mg/ml). CYP selective inhibitor experiments were not performed due to lack of appreciable Compound I turnover."}, "HDAC6": {"target": "T1, HDAC6 (Homo sapiens, UniProt Q9UBN7)", "T1 construct": "expressed in transfected cells", "T1 sequence (Q9UBN7 whole entry)": "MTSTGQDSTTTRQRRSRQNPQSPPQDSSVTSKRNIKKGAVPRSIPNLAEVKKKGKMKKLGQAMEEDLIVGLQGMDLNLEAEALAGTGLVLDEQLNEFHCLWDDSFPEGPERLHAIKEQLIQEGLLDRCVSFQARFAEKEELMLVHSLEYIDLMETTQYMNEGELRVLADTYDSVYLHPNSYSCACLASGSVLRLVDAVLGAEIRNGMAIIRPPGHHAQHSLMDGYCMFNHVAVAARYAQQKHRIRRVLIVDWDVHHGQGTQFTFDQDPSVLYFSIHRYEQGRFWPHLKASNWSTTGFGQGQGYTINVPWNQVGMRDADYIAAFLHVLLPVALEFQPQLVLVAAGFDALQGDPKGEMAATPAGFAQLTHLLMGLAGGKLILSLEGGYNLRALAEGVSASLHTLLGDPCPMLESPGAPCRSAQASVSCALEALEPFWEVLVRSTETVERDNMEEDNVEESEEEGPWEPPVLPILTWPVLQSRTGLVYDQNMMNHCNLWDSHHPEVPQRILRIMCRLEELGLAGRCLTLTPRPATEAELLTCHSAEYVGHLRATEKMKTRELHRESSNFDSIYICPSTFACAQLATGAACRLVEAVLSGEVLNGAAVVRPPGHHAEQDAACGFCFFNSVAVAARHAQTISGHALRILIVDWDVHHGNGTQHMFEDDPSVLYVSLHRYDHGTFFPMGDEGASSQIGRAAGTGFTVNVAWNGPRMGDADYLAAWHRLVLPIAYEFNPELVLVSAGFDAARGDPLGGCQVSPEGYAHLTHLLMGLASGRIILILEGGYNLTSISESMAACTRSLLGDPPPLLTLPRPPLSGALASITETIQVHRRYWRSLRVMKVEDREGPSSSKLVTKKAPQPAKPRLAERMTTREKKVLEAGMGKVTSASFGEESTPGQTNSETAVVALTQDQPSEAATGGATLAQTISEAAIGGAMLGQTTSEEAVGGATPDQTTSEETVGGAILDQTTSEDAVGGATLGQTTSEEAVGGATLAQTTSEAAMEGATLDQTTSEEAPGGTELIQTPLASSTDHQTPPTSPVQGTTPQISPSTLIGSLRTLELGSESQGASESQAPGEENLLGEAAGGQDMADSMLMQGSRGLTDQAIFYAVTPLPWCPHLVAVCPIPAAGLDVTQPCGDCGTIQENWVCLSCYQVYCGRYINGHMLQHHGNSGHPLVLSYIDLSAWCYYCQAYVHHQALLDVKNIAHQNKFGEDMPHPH", "experiment": "Cellular NanoBRET assay, HDAC6", "type": "cell-based"}, "CYP3A4/5": {"tested_on": "CYP3A4/5", "experiment": "Metabolism by recombinant human CYP3A4/5", "type": "in vitro ADME", "conditions": "read-out: terminal half life (T1/2), rh CYP3A4/5", "experimental": "as §1"}, "CYP2C8": {"target": "CYP2C8 (Homo sapiens, UniProt P10632)", "sequence (P10632 whole entry)": "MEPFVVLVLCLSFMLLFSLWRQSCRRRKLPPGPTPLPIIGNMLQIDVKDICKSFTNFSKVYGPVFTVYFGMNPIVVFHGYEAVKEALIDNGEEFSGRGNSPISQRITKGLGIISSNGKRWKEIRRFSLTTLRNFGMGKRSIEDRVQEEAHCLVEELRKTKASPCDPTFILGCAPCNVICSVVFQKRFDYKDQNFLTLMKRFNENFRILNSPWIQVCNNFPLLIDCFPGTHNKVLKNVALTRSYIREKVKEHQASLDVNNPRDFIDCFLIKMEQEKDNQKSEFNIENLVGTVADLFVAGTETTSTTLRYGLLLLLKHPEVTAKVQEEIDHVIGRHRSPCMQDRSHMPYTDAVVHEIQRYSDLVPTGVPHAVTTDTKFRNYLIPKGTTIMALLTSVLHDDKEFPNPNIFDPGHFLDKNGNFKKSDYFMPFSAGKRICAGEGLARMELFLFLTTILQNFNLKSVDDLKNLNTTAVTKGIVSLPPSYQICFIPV", "experiment": "Metabolism by recombinant human CYP2C8", "type": "in vitro ADME", "conditions": "read-out: terminal half life (T1/2), rh CYP2C8", "experimental": "as §1"}}, "data": [{"smiles": "C[S@@](=N)(=O)c1ccc(C(=O)Nc2cc(-c3ccc(F)cc3)ccc2N)cc1", "note": "[Compound I, (R)—N-(4-amino-4′-fluoro-[1,1′-biphenyl]-3-yl)-4-(S-methylsulfonimidoyl)benzamide]", "values": [{"measurement": "immune evasion; expression of cytokines and antigen presentation genes", "setting": "[1]", "result": "reverses immune evasion on tumor cells"}, {"measurement": "half-life", "setting": "CYP2C19", "result": "> 1", "unit": "h"}, {"measurement": "IC50", "setting": "HDAC6", "result": "> 30", "unit": "µM"}, {"measurement": "half-life", "setting": "CYP3A4/5", "result": "> 1", "unit": "h"}, {"measurement": "half-life", "setting": "CYP2C8", "result": "> 1", "unit": "h"}]}]}
